Reference: PMC10079235 (PLOS Neglected Tropical Diseases, 2023)
Where a name gives a salt, the structure may show the parent alone. Read-outs that look alike come from different tables or passages of the source.

Tests used:
HCT-8/NC cells [1] = assay: MTS cytotoxicity (drug tolerance) assay; conditions: no drug selection
HCT-8/WT(PTX) cells = assay: MTS cytotoxicity (drug tolerance) assay
Protocol: (§1) Host cell drug tolerance to specified inhibitors was evaluated by 3-(4,5-dimethylthiazol-2-yl)-5-(3-carboxymethoxyphenyl)-2-(4-sulfophenyl)-2H-tetrazolium (MTS) assay. WT and transgenic host cells were seeded in 96-well plates (10,000 cells/well) and cultured for 24 h, followed by the addition of specified compounds at serially diluted concentrations and continued culture for 41 h. After 3 washes with serum-free medium, MTS solution (Saint-Bio, Shanghai, China) was added into the plates (20 μL/well) and incubated at 37°C for 2 h. Optical density at 490 nm (OD490) was measured using a Synergy LX multi-mode reader (BioTek, Winooski, VT). Drug tolerance was indicated by half-maximal cytotoxic concentrations (TC50 values) calculated by nonlinear regression using 4PL model. Selectivity index (SI) for each compound was determined by the ratio between TC50 and EC50 values (SI = TC50/EC50).
(§2) Surviving cells were allowed to recover in drug-free medium for 3–5 d to near confluence (round 1). The selection/recovery cycle were repeated once (round 2). […] The resulting cell lines after PTX or NTZ selection were designated as WT(PTX), NC(PTX) and MDR1(PTX), or WT(NTZ), NC(NTZ) and MDR1(NTZ), respectively (Tables 1 and S2).

HCT-8/NC(NTZ) cells = assay: MTS cytotoxicity (drug tolerance) assay
Protocol: as §1
(§3) Surviving cells were allowed to recover in drug-free medium for 3–5 d to near confluence (round 1). The selection/recovery cycle were repeated once (round 2). […] Finally, all cells were cultured at the final selection concentrations of PTX or NTZ for ≥7 d, followed by culture in drug-free medium for 14 d. At this time point, cells were used for cytotoxicity and efficacy assays or cryopreserved in a liquid nitrogen tank. The resulting cell lines after PTX or NTZ selection were designated as WT(PTX), NC(PTX) and MDR1(PTX), or WT(NTZ), NC(NTZ) and MDR1(NTZ), respectively (Tables 1 and S2).

HCT-8/WT(NTZ) cells = assay: MTS cytotoxicity (drug tolerance) assay
Protocol: as §1, §3

HCT-8/MDR1 cells [2] = assay: MTS cytotoxicity (drug tolerance) assay; conditions: for TC50: MDR1 cells, no drug selection, MTS assay
HCT-8/WT cells = assay: MTS cytotoxicity (drug tolerance) assay; conditions: for TC50: WT cells, no drug selection, MTS assay
Protocol: as §1

HCT-8/NC cells [3] = conditions: human, 41 h
Cryptosporidium parvum = assay: Anti-cryptosporidial efficacy assay (44-h infection/qRT-PCR); conditions: for EC50: Cryptosporidium parvum; for On-target (Eon) rate at EC50 / On-target rate at EC50: Eq 2; for Action on parasite target (on-target) conclusion: MDR1-transgenic host cell model; for Eoff, proportion of off-parasite-target effect / Eon, proportion of on-parasite-target effect: Eq 3 and 4
HCT-8/MDR1(PTX) cells = conditions: for TC50: MDR1(PTX) cells; for Pct change of TC50 (vs NC): MDR1(PTX) vs NC cells
Protocol: as §1, §2

HCT-8/MDR1(NTZ) cells = assay: MTS cytotoxicity (drug tolerance) assay
Protocol: as §1, §2

HCT-8/NC(PTX) cells = assay: MTS cytotoxicity (drug tolerance) assay
Protocol: as §1, §2

HCT-8/MDR1 cells [4] = conditions: human, 41 h
[5] = WT(PTX) cells, after selection by PTX
[6] = NC(NTZ) cells, after selection by NTZ
[7] = WT(NTZ) cells, after selection by NTZ
[8] = MDR1, read-out: Antiparasitic efficacy (EC50), C. parvum cultured in MDR1(PTX) host cells
[9] = read-out: Antiparasitic efficacy (EC50), C. parvum cultured in NC host cells
[10] = read-out: Antiparasitic efficacy (EC50), C. parvum cultured in WT host cells
[11] = at EC10, MDR1(PTX) vs. NC model
[12] = at EC20, MDR1(PTX) vs. NC model
[13] = at EC30, MDR1(PTX) vs. NC model
[14] = at EC40, MDR1(PTX) vs. NC model
[15] = at EC50, MDR1(PTX) vs. NC model
[16] = at EC60, MDR1(PTX) vs. NC model
[17] = at EC70, MDR1(PTX) vs. NC model
[18] = at EC80, MDR1(PTX) vs. NC model
[19] = at EC90, MDR1(PTX) vs. NC model
[20] = after selection by PTX vs parent cell line
[21] = after selection by NTZ vs parent cell line
[22] = at EC10, MDR1(NTZ) vs. NC model
[23] = at EC20, MDR1(NTZ) vs. NC model
[24] = at EC30, MDR1(NTZ) vs. NC model
[25] = at EC40, MDR1(NTZ) vs. NC model
[26] = at EC50, MDR1(NTZ) vs. NC model
[27] = at EC60, MDR1(NTZ) vs. NC model
[28] = at EC70, MDR1(NTZ) vs. NC model
[29] = at EC80, MDR1(NTZ) vs. NC model
[30] = at EC90, MDR1(NTZ) vs. NC model

CN(C)C(=O)C(CCN1CCC(O)(c2ccc(Cl)cc2)CC1)(c1ccccc1)c1ccccc1 [Loperamide, Loperamide HCl]
TC50 (HCT-8/NC cells [1]): 16.08 µM | TC50 (HCT-8/WT(PTX) cells; [5]): 16.42 µM | TC50 (HCT-8/NC(NTZ) cells; [6]): 15.64 µM | TC50 (HCT-8/WT(NTZ) cells; [7]): 16.23 µM | TC50 (HCT-8/MDR1 cells [2]): 16.49 µM | TC50 (HCT-8/WT cells): 15.96 µM

O=C1c2c(O)ccc(O)c2C(=O)c2c(NCCNCCO)ccc(NCCNCCO)c21 [Mitoxantrone, Mitoxantrone 2HCl]
TC50 (HCT-8/NC cells [3]): 4.11 µM | EC50 (Cryptosporidium parvum; [8]): 4.16 µM | EC50 (Cryptosporidium parvum; [9]): 2.04 µM | EC50 (Cryptosporidium parvum; [10]): 2.07 µM | On-target (Eon) rate at EC50 (Cryptosporidium parvum; MDR1(PTX) cell model): 39.8% | On-target (Eon) rate at EC50 (Cryptosporidium parvum; MDR1(PTX) cell model, listed as MXT): 39.8% | Off-target (Eoff) rate at EC50 (Cryptosporidium parvum; MDR1(PTX) cell model, from Pct changes of EC50 and TC50 (Eq 1)): 60.2% | Action on parasite target (on-target) conclusion (Cryptosporidium parvum): partially on-target | Selectivity index (SI) (Cryptosporidium parvum; TC50/EC50 in MDR1(PTX) cells): 2.69 | Selectivity index (SI) (Cryptosporidium parvum; TC50/EC50 in NC cells): 2.01 | Selectivity index (SI, k) (Cryptosporidium parvum; TC50/EC50 in WT cells): 2.08 | Eoff, proportion of off-parasite-target effect (Cryptosporidium parvum; [11]): 39.80% | Eon, proportion of on-parasite-target effect (Cryptosporidium parvum; [11]): 60.20% | Eoff, proportion of off-parasite-target effect (Cryptosporidium parvum; [12]): 47.10% | Eon, proportion of on-parasite-target effect (Cryptosporidium parvum; [12]): 52.90% | Eoff, proportion of off-parasite-target effect (Cryptosporidium parvum; [13]): 52.00% | Eon, proportion of on-parasite-target effect (Cryptosporidium parvum; [13]): 48.00% | Eoff, proportion of off-parasite-target effect (Cryptosporidium parvum; [14]): 56.10% | Eon, proportion of on-parasite-target effect (Cryptosporidium parvum; [14]): 43.90% | Eoff, proportion of off-parasite-target effect (Cryptosporidium parvum; [15]): 60.0% | Eon, proportion of on-parasite-target effect (Cryptosporidium parvum; [15]): 40.0% | Eoff, proportion of off-parasite-target effect (Cryptosporidium parvum; [16]): 63.90% | Eon, proportion of on-parasite-target effect (Cryptosporidium parvum; [16]): 36.10% | Eoff, proportion of off-parasite-target effect (Cryptosporidium parvum; [17]): 68.20% | Eon, proportion of on-parasite-target effect (Cryptosporidium parvum; [17]): 31.80% | Eoff, proportion of off-parasite-target effect (Cryptosporidium parvum; [18]): 73.60% | Eon, proportion of on-parasite-target effect (Cryptosporidium parvum; [18]): 26.40% | Eoff, proportion of off-parasite-target effect (Cryptosporidium parvum; [19]): 81.90% | Eon, proportion of on-parasite-target effect (Cryptosporidium parvum; [19]): 18.10% | TC50 (HCT-8/MDR1(PTX) cells; after selection by PTX): 11.21 µM | Pct change of TC50 (vs NC) (HCT-8/MDR1(PTX) cells): 172.7% | Pct change of TC50 (vs NC) (HCT-8/MDR1(PTX) cells; listed as MXT): 172.7% | Fold change of TC50 MDR1(PTX) vs. NC (HCT-8/MDR1(PTX) cells; after selection by PTX): 2.73 | Fold change of TC50 MDR1(PTX) vs. MDR1 (HCT-8/MDR1(PTX) cells; [20]): 1.65 | Fold change of TC50 MDR1(PTX)/NC(PTX) (HCT-8/MDR1(PTX) cells; ratio of TC50): 2.58 | TC50 (HCT-8/MDR1(NTZ) cells; MDR1(NTZ) cells, after selection by NTZ): 6.74 µM | Fold increase of TC50 MDR1(NTZ) vs. NC (HCT-8/MDR1(NTZ) cells; after selection by NTZ): 1.64 | Fold increase of TC50 MDR1(NTZ) vs. MDR1 (HCT-8/MDR1(NTZ) cells; [21]): 0.99 | Fold change of TC50 WT(PTX) vs. WT (HCT-8/WT(PTX) cells; [20]): 0.98 | TC50 (HCT-8/WT(PTX) cells; human, 41 h): 4.23 µM | Fold change of TC50 NC(PTX) vs. NC (HCT-8/NC(PTX) cells; [20]): 1.06 | TC50 (HCT-8/NC(PTX) cells; human, 41 h): 4.34 µM | Fold increase of TC50 NC(NTZ) vs. NC (HCT-8/NC(NTZ) cells; [21]): 1.02 | TC50 (HCT-8/NC(NTZ) cells; human, 41 h): 4.19 µM | Fold increase of TC50 WT(NTZ) vs. WT (HCT-8/WT(NTZ) cells; [21]): 0.96 | TC50 (HCT-8/WT(NTZ) cells; human, 41 h): 4.15 µM | TC50 (HCT-8/MDR1 cells [2]): 6.79 µM | Fold change of TC50 MDR1/NC (HCT-8/MDR1 cells [2]; ratio of TC50, MDR1 vs NC cells): 1.65 | TC50 (HCT-8/WT cells): 4.31 µM

CC(=O)Oc1ccccc1C(=O)Nc1ncc([N+](=O)[O-])s1 [Nitazoxanide]
EC50 (Cryptosporidium parvum; MDR1, read-out: Antiparasitic efficacy (EC50), C. parvum cultured in MDR1(NTZ) host cells): 1.07 µM | EC50 (Cryptosporidium parvum; [8]): 1.06 µM | EC50 (Cryptosporidium parvum; [9]): 1.11 µM | EC50 (Cryptosporidium parvum; [10]): 1.09 µM | Off-target rate at EC50 (Cryptosporidium parvum; MDR1(NTZ) cell model, Eq 1): -3.6% | On-target rate at EC50 (Cryptosporidium parvum; MDR1(NTZ) cell model): 103.6% | On-target rate at EC50 (Cryptosporidium parvum; MDR1(NTZ) cell model, listed as NTZ): 103.6% | Action on parasite target (on-target) conclusion (Cryptosporidium parvum): 100% on-target | Eoff, proportion of off-parasite-target effect (Cryptosporidium parvum; [22]): -7.90% | Eon, proportion of on-parasite-target effect (Cryptosporidium parvum; [22]): 107.90% | Eoff, proportion of off-parasite-target effect (Cryptosporidium parvum; [23]): -6.10% | Eon, proportion of on-parasite-target effect (Cryptosporidium parvum; [23]): 106.10% | Eoff, proportion of off-parasite-target effect (Cryptosporidium parvum; [24]): -5.10% | Eon, proportion of on-parasite-target effect (Cryptosporidium parvum; [24]): 105.10% | Eoff, proportion of off-parasite-target effect (Cryptosporidium parvum; [25]): -4.30% | Eon, proportion of on-parasite-target effect (Cryptosporidium parvum; [25]): 104.30% | Eoff, proportion of off-parasite-target effect (Cryptosporidium parvum; [26]): −3.6% | Eon, proportion of on-parasite-target effect (Cryptosporidium parvum; [26]): 103.6% | Eoff, proportion of off-parasite-target effect (Cryptosporidium parvum; [27]): -2.90% | Eon, proportion of on-parasite-target effect (Cryptosporidium parvum; [27]): 102.90% | Eoff, proportion of off-parasite-target effect (Cryptosporidium parvum; [28]): -2.30% | Eon, proportion of on-parasite-target effect (Cryptosporidium parvum; [28]): 102.30% | Eoff, proportion of off-parasite-target effect (Cryptosporidium parvum; [29]): -1.50% | Eon, proportion of on-parasite-target effect (Cryptosporidium parvum; [29]): 101.50% | Eoff, proportion of off-parasite-target effect (Cryptosporidium parvum; [30]): -0.50% | Eon, proportion of on-parasite-target effect (Cryptosporidium parvum; [30]): 100.50% | TC50 (HCT-8/MDR1(PTX) cells; after selection by PTX): 25.59 µM | TC50 (HCT-8/NC cells [1]): 25.90 µM | Pct change of TC50 (vs NC) (HCT-8/MDR1(NTZ) cells; MDR1(NTZ) vs NC cells): 101.5% | TC50 (HCT-8/MDR1(NTZ) cells; human, 41 h): 52.19 µM | TC50 (HCT-8/WT(PTX) cells; [5]): 25.37 µM | TC50 (HCT-8/NC(PTX) cells; NC(PTX) cells, after selection by PTX): 26.76 µM | TC50 (HCT-8/NC(NTZ) cells; [6]): 39.09 µM | TC50 (HCT-8/WT(NTZ) cells; [7]): 38.70 µM | TC50 (HCT-8/WT cells): 26.75 µM | Calculated cytotoxicity at EC50 (HCT-8/WT cells; percent inhibition of WT host cell growth at the EC50 concentration, calculated with Eq 5 from k and h): 2.73% | TC50 (HCT-8/MDR1 cells [4]): 25.28 µM
